The target of one assay is SARS-CoV-2 3CL protease (Severe acute respiratory syndrome coronavirus 2, UniProt P0DTD1). The assay can be described thus: Inhibitory activity test against SARS-CoV-2 3CL proteases. It is filed as biochemical. As to conditions: IC50 (50% SARS-CoV-2 3CL protease inhibitory concentration).
As for `O=c1[nH]cccc1Cn1c(=O)c2ccc(N3[C@@H]4CC[C@H]3CNC4)cc2n(Cc2cc(F)c(F)c(F)c2)c1=O` [Compound I-0379], the IC50 is less than 100 nM.
For `O=c1[nH]cccc1Cn1c(=O)c2ccc(N3[C@@H]4CNC[C@H]3COC4)cc2n(Cc2cc(F)c(F)c(F)c2)c1=O` [Compound I-0381], the IC50 is less than 100 nM.
`COc1nc(N2CC[C@H](F)C2)cc2c1c(=O)n(Cc1ncn(C)n1)c(=O)n2Cc1cc(F)c(F)c(F)c1` [Compound I-0446]: the IC50 was less than 100 nM.
`COc1nc(N2CC[C@@H](F)C2)cc2c1c(=O)n(Cc1ncn(C)n1)c(=O)n2Cc1cc(F)c(F)c(F)c1` [Compound I-0453] yielded an IC50 of 2.5 nM.
Regarding `COc1nc(C2=CC3CCC(C2)N3)cc2c1c(=O)n(-c1cncc(Cl)c1)c(=O)n2Cc1cc(F)c(F)c(F)c1` (stereo not shown) [Compound I-0464], the IC50 came to 11 nM.

Still in this assay, the particulars now being: read-out: IC50 (50% SARS-CoV-2 3CL protease inhibitory concentration).
With `Cc1cc2c(=O)n(Cc3ncn(C)n3)c(=O)n(Cc3cc(F)c(F)c(F)c3)c2cc1-c1cc2c(cc1Cl)NC(=O)C2` [Compound I-0248], the IC50 was 7.3 nM.
In the case of `Cn1cnc(Cn2c(=O)c3cc(F)c(-c4cc5c(cc4Cl)NC(=O)C5)cc3n(Cc3cc(F)c(F)c(F)c3)c2=O)n1` [Compound I-0249], the IC50 turned out to be 33 nM.
Regarding `Cn1cnc(Cn2c(=O)c3ccc(-c4cc5c(cc4Cl)NC(=O)C5)c(F)c3n(Cc3cc(F)c(F)c(F)c3)c2=O)n1` [Compound I-0250], the IC50 turned out to be 35 nM.
Turning to `COc1cc(-c2cc3[nH]c(=O)[nH]c3cc2Cl)cc2c1c(=O)n(Cc1ncn(C)n1)c(=O)n2Cc1cc(F)c(F)c(F)c1` [Compound I-0265], the IC50 was less than 100 nM.
For `Cn1cnc(Cn2c(=O)c3c(F)cc(-c4cc5c(cc4Cl)NC(=O)C5)cc3n(Cc3cc(F)c(F)c(Cl)c3)c2=O)n1` [Compound I-0267], the IC50 is less than 100 nM.
With `COc1cc(-c2c(Cl)ccc3c(=O)n(C)ccc23)cc2c1c(=O)n(Cc1ncn(C)n1)c(=O)n2Cc1cc(F)c(F)c(F)c1` [Compound I-0268], the IC50 was 7.5 nM.
Same read-out and setting: in the case of `Cn1cnc(Cn2c(=O)c3c(F)cc(-c4cc5cn[nH]c5cc4Cl)cc3n(Cc3cc(F)c(F)c(Cl)c3)c2=O)n1` [Compound I-0269] it was less than 100 nM; in that of `Cn1cnc(Cn2c(=O)c3c(F)cc(-c4cc5c(cc4Cl)NC(=O)C5)cc3n(Cc3cc(F)c(F)c(F)c3)c2=O)n1` [Compound I-0270], less than 100 nM; in that of `COc1cc(-c2cc(C#N)ccc2Cl)cc2c1c(=O)n(Cc1ncn(C)n1)c(=O)n2Cc1cc(F)c(F)c(Cl)c1` [Compound I-0271], less than 100 nM.
The same measure, in the same setting: to `COc1cc(-c2cc3cn[nH]c3cc2Cl)cc2c1c(=O)n(Cc1ncn(C)n1)c(=O)n2Cc1cc(Cl)c(F)cc1F` [Compound I-0272] belongs less than 100 nM; to `COc1cc(-c2c(Cl)ccc3c(=O)[nH]ccc23)cc2c1c(=O)n(Cc1ncn(C)n1)c(=O)n2Cc1cc(F)c(F)c(F)c1` [Compound I-0274], 15 nM.
For the molecule `COc1cc(-c2cc3c(cc2Cl)NC(=O)C3(C)C)cc2c1c(=O)n(Cc1ncn(C)n1)c(=O)n2Cc1cc(F)c(F)c(F)c1` [Compound I-0275], the IC50 is 19 nM.
Same read-out and setting: to `COc1cc(-c2cc(C(C)(C)O)ccc2Cl)cc2c1c(=O)n(Cc1ncn(C)n1)c(=O)n2Cc1cc(F)c(F)c(F)c1` [Compound I-0276] belongs 24 nM; to `COc1cc(-c2c(Cl)ccc3c2CNC3=O)cc2c1c(=O)n(Cc1ncn(C)n1)c(=O)n2Cc1cc(F)c(F)c(F)c1` [Compound I-0277], 24 nM; to `COc1cc(-c2c(Cl)ccc3c2CN(C)C3=O)cc2c1c(=O)n(Cc1ncn(C)n1)c(=O)n2Cc1cc(F)c(F)c(F)c1` [Compound I-0278], 26 nM.
With `COc1cc(-c2cc(C#N)ccc2Cl)cc2c1c(=O)n(Cc1ncn(C)n1)c(=O)n2Cc1cc(Cl)c(F)cc1F` [Compound I-0279], the IC50 is less than 100 nM.
Take `Cn1cnc(Cn2c(=O)c3c(F)cc(-c4cc(C#N)ccc4Cl)cc3n(Cc3cc(F)c(F)c(Cl)c3)c2=O)n1` [Compound I-0281]: the IC50 was less than 100 nM.
For the molecule `COc1cc(-c2cc(C(C)=O)ccc2Cl)cc2c1c(=O)n(Cc1ncn(C)n1)c(=O)n2Cc1cc(F)c(F)cc1F` [Compound I-0282], the IC50 was less than 100 nM.
As to `COc1cc(-c2cc(C3COC3)ccc2Cl)cc2c1c(=O)n(Cc1ncn(C)n1)c(=O)n2Cc1cc(F)c(F)c(F)c1` [Compound I-0283], the IC50 was 32 nM.
Same read-out and setting: in the case of `NC(=O)c1ccc(Cl)c(-c2ccc3c(=O)n(Cc4ccc[nH]c4=O)c(=O)n(Cc4cc(F)c(F)c(F)c4)c3c2)c1` [Compound I-0296] it was less than 100 nM.
For `NC(=O)c1ccc(Cl)c(-c2nc3c(cc2F)c(=O)n(Cc2ccc[nH]c2=O)c(=O)n3Cc2cc(F)c(F)c(F)c2)c1` [Compound I-0301], the IC50 turned out to be 98 nM.
Same read-out and setting: to `O=c1[nH]cccc1Cn1c(=O)c2c(n(Cc3cc(F)c(F)c(F)c3)c1=O)CCCC2` [Compound I-0325] belongs 450 nM; to `Cn1cnc(Cn2c(=O)c3c4c(c(-c5cc6c(cc5Cl)NC(=O)C6)cc3n(Cc3cc(F)c(F)c(F)c3)c2=O)CCO4)n1` [Compound I-0353], 0.45 nM.
As to `COc1cc(-c2cc(CN=S(C)(C)=O)ccc2Cl)cc2c1c(=O)n(Cc1ncn(C)n1)c(=O)n2Cc1cc(F)c(F)c(F)c1` [Compound I-0363], the IC50 stood at 35 nM.
Take `O=c1[nH]cccc1Cn1c(=O)c2ccc(N3C[C@@H]4CN[C@@H](C4)C3)cc2n(Cc2cc(F)c(F)c(F)c2)c1=O` [Compound I-0378]: the IC50 was less than 100 nM.
On the same count and under the same terms, in the case of `O=c1[nH]cccc1Cn1c(=O)c2ccc(N3C[C@@H]4CC[C@H]3CN4)cc2n(Cc2cc(F)c(F)c(F)c2)c1=O` [Compound I-0380] it was 14 nM; in that of `COc1nc(N2CC[C@@H](O)C2)cc2c1c(=O)n(Cc1ncn(C)n1)c(=O)n2Cc1cc(F)c(F)c(Cl)c1` [Compound I-0388], 20 nM; in that of `COc1nc(N2C[C@H]3C[C@@H]2CN3)cc2c1c(=O)n(Cc1ncn(C)n1)c(=O)n2Cc1cc(F)c(F)c(F)c1` [Compound I-0389], 1.9 nM.
Same read-out and setting: in the case of `Cn1cnc(Cn2c(=O)c3ccc(N4C[C@H]5C[C@@H]4CN5)cc3n(Cc3cc(F)c(F)c(F)c3)c2=O)n1` [Compound I-0393] it was less than 100 nM; in that of `COc1cc(N2C[C@H]3C[C@@H]2CN3)cc2c1c(=O)n(Cc1ncn(C)n1)c(=O)n2Cc1cc(F)c(F)c(F)c1` [Compound I-0395], 2.2 nM; in that of `COc1cc(N2C[C@H]3C[C@@H]2CN3)cc2c1c(=O)n(-c1cncc(Cl)c1)c(=O)n2Cc1cc(F)c(F)c(F)c1` [Compound I-0396], 1.3 nM.
For `Cn1cnc(Cn2c(=O)c3c4c(c(-c5cc(C#N)ccc5Cl)cc3n(Cc3cc(F)c(F)c(F)c3)c2=O)CCO4)n1` [Compound I-0414], the IC50 stood at 1.5 nM.
For `Cn1cnc(Cn2c(=O)c3c4c(c(N5CC[C@@H](O)C5)cc3n(Cc3cc(F)c(F)c(F)c3)c2=O)CCO4)n1` [Compound I-0415], the IC50 is less than 100 nM.
In the case of `Cn1cnc(Cn2c(=O)c3c4c(c(N5C[C@H]6C[C@@H]5CN6)cc3n(Cc3cc(F)c(F)c(F)c3)c2=O)CCO4)n1` [Compound I-0429], the IC50 was less than 100 nM.
Take `N#Cc1ccc(Cl)c(-c2cc3c(c(=O)[nH]2)c(=O)n(-c2cncc(Cl)c2)c(=O)n3Cc2cc(F)c(F)c(F)c2)c1` [Compound I-0431]: the IC50 is 11 nM.
With `Cn1c(-c2cc(C#N)ccc2Cl)cc2c(c1=O)c(=O)n(-c1cncc(Cl)c1)c(=O)n2Cc1cc(F)c(F)c(F)c1` [Compound I-0435], the IC50 amounted to 1 nM.
Still for that read-out and setting: to `CCn1c(-c2cc(C#N)ccc2Cl)cc2c(c1=O)c(=O)n(-c1cncc(Cl)c1)c(=O)n2Cc1cc(F)c(F)c(F)c1` [Compound I-0437] belongs 1.3 nM; to `CC1COc2c1c(-c1cc(C#N)ccc1Cl)cc1c2c(=O)n(Cc2ncn(C)n2)c(=O)n1Cc1cc(F)c(F)c(F)c1` (stereo not shown) [Compound I-0438], 3.5 nM.
Same read-out and setting: in the case of `CC1Cc2c(-c3cc(C#N)ccc3Cl)cc3c(c2O1)c(=O)n(Cc1ncn(C)n1)c(=O)n3Cc1cc(F)c(F)c(F)c1` (stereo not shown) [Compound I-0439] it was 4.7 nM; in that of `CC1COc2c1c(N1CC[C@@H](O)C1)cc1c2c(=O)n(Cc2ncn(C)n2)c(=O)n1Cc1cc(F)c(F)c(F)c1` (stereo partly shown) [Compound I-0440], 10 nM; in that of `N#Cc1ccc(Cl)c(-c2cc3c(c4c2CCO4)c(=O)n(Cc2ncccn2)c(=O)n3Cc2cc(F)c(F)c(F)c2)c1` [Compound I-0442], less than 100 nM.
The same measure, in the same setting: in the case of `CNC(=O)Cn1c(=O)c2c3c(c(-c4cc(C#N)ccc4Cl)cc2n(Cc2cc(F)c(F)c(F)c2)c1=O)CCO3` [Compound I-0443] it was less than 100 nM; in that of `COc1nc(N2CC[C@@H](C(N)=O)C2)cc2c1c(=O)n(Cc1ncn(C)n1)c(=O)n2Cc1cc(F)c(F)c(Cl)c1` [Compound I-0445], 22 nM; in that of `COc1nc(N2CC[C@@H](OC)C2)cc2c1c(=O)n(Cc1ncn(C)n1)c(=O)n2Cc1cc(F)c(F)c(F)c1` [Compound I-0449], 37 nM.
`COc1nc(N2CCC(C#N)C2)cc2c1c(=O)n(Cc1ncn(C)n1)c(=O)n2Cc1cc(F)c(F)c(F)c1` (stereo not shown) [Compound I-0451]: the IC50 is less than 100 nM.
Still for that read-out and setting: to `COc1nc(N2C[C@H]3C[C@@H]2CN3)cc2c1c(=O)n(-c1cncc(Cl)c1)c(=O)n2Cc1cc(F)c(F)c(F)c1` [Compound I-0459] belongs less than 100 nM.
Same read-out and setting: in the case of `Cn1cnc(Cn2c(=O)c3c4c(c(-c5cc(C#N)ccc5Cl)cc3n(Cc3cc(F)c(F)c(F)c3)c2=O)CCCO4)n1` [Compound I-0460] it was 9.2 nM.
For `[2H]C1([2H])N(c2cc3c(c(OC)n2)c(=O)n(Cc2ncn(C)n2)c(=O)n3Cc2cc(F)c(F)c(F)c2)C([2H])([2H])C([2H])([2H])C1([2H])[2H]` [Compound I-0466], the IC50 was less than 100 nM.
Turning to `Cn1cnc(Cn2c(=O)c3c4c(c(-c5cc(N=S(C)(C)=O)ccc5Cl)cc3n(Cc3cc(F)c(F)c(F)c3)c2=O)CCO4)n1` [Compound I-0472], the IC50 is less than 100 nM.
As for `Cn1cnc(Cn2c(=O)c3c4occc4c(-c4cc(C#N)ccc4Cl)cc3n(Cc3cc(F)c(F)c(F)c3)c2=O)n1` [Compound I-0473], the IC50 was 4.1 nM.

Source of the values: patent US20240400560A1, “BICYCLIC HETEROCYCLIC DERIVATIVE HAVING VIRAL GROWTH INHIBITORY ACTIVITY AND PHARMACEUTICAL COMPOSITION CONTAINING SAME” (Shionogi & Co., Ltd., priority 2021, published 2024).
